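Each compound was tested at five concentrations against cells in 96-well plates for 48 hours. At the GI50, growth is halved. TGI: total growth inhibition.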 Where a SMILES comes first, the peptide text is derived from it. The star is where a group is joined. Cbz = O=C(OCc1ccccc1)*; NHNH2 = NN*
What was measured:
Assay in all cases: growth of human tumour cells (NCI), 48 h
[1] = tested on: HCC-2998 colon
[2] = tested on: MOLT-4 leukemia
[3] = tested on: CAKI-1 renal
[4] = tested on: SW-620 colon
[5] = tested on: OVCAR-3 ovarian
[6] = tested on: K-562 leukemia
[7] = tested on: SK-MEL-28 melanoma
[8] = tested on: DU-145 prostate
[9] = tested on: HT29 colon
[10] = tested on: MALME-3M melanoma

| SMILES | TGI [1] | TGI [2] | TGI [3] | TGI [4] | TGI [5] | TGI [6] | TGI [7] | TGI [8] | TGI [9] | TGI [10] | GI50 [1] | GI50 [2] | GI50 [4] | GI50 [5] | GI50 [10] | GI50 [6] | GI50 [7] | GI50 [8] | GI50 [9] |
| --- | --- | --- | --- | --- | --- | --- | --- | --- | --- | --- | --- | --- | --- | --- | --- | --- | --- | --- | --- |
| Nc1c(C(=O)c2ccc(Cl)cc2)[nH]c(NCc2ccccc2)c1C(=S)Nc1ccccc1 | 1.98 µM | 6.49 µM | 18.6 µM | 3.63 µM | 20.2 µM | 4.04 µM | 3.22 µM | 13.1 µM | 3.7 µM | – | – | – | – | – | – | – | – | – | – |
| CN(C)CCn1c(=O)c2ccc(NCCCN(C)CCCNc3ccc4c(=O)n(CCN(C)C)c(=O)n5c6ccc([N+](=O)[O-])cc6c(=O)c3c45)c3c(=O)c4cc([N+](=O)[O-])ccc4n(c1=O)c23 | 0.0921 µM | – | 1.16 µM | – | 1.31 µM | – | 0.553 µM | 0.39 µM | 0.726 µM | 0.781 µM | – | – | – | – | – | – | – | – | – |
| CC1(C(=O)O)CCCC1C(=O)O (stereo not given) | – | > 100 µM | > 100 µM | > 100 µM | > 100 µM | > 100 µM | > 100 µM | > 100 µM | > 100 µM | > 100 µM | – | – | – | – | – | – | – | – | – |
| COC(=O)C1CC2(c3ccccc3)C(=O)c3ccccc3N2O1 (stereo not given) | > 100 µM | 75.8 µM | > 100 µM | > 100 µM | > 100 µM | > 100 µM | > 100 µM | – | > 100 µM | > 100 µM | – | – | – | – | – | – | – | – | – |
| Cn1c([O-])nc(-n2cc[n+](C)c2)cc1=O | – | > 100 µM | – | > 100 µM | > 100 µM | > 100 µM | > 100 µM | > 100 µM | > 100 µM | > 100 µM | – | – | – | – | – | – | – | – | – |
| COC1(OC)CCCCC2c3cccc(OC(C)=O)c3C21OC(C)=O (stereo not given) | > 100 µM | > 100 µM | – | > 100 µM | > 100 µM | > 100 µM | > 100 µM | – | > 100 µM | > 100 µM | – | – | – | – | – | – | – | – | – |
| O=C(Nc1cccc(O)c1)C(=O)C(C(=O)c1ccccc1F)C1OC(=O)c2ccccc21 (stereo not given) | 39.4 µM | > 100 µM | 94 µM | > 100 µM | – | > 100 µM | 92.9 µM | – | > 100 µM | – | – | – | – | – | – | – | – | – | – |
| Nc1ccc2[nH]c(-c3cccc(Cl)c3)cc(=O)c2c1 | 54.4 µM | > 100 µM | – | > 100 µM | – | – | > 100 µM | – | 29.5 µM | > 100 µM | – | – | – | – | – | – | – | – | – |
| CC(=S)N=Cc1c(O)cc(C)oc1=O | > 100 µM | > 100 µM | > 100 µM | > 100 µM | > 100 µM | > 100 µM | – | > 100 µM | > 100 µM | – | – | – | – | – | – | – | – | – | – |
| O=C(N/N=C/c1cc(Br)cc(Br)c1[O-])c1ccccc1O.O=C(N/N=C/c1cc(Br)cc(Br)c1[O-])c1ccccc1O.[Fe+2] | 12.5 µM | 19.8 µM | 34.5 µM | 19.7 µM | 25.8 µM | – | 21.6 µM | – | 19.7 µM | 37.5 µM | – | – | – | – | – | – | – | – | – |
| N#Cc1c(-c2ccc(F)cc2)nc(N/N=C/c2c[nH]c3ccccc23)nc1N1CCOCC1 | > 100 µM | 9.63 µM | – | 4.69 µM | 35 µM | 14.2 µM | 4.04 µM | > 100 µM | 22.6 µM | 4.76 µM | 9.91 µM | 1.6 µM | 1.58 µM | 11.5 µM | 2.75 µM | 1.79 µM | 1.92 µM | 2.9 µM | 1.11 µM |
| O=C(O)C(CS)N=c1c2ccccc2n(O)c2ccccc12 (stereo not given) | > 100 µM | > 100 µM | > 100 µM | > 100 µM | > 100 µM | > 100 µM | > 100 µM | – | > 100 µM | > 100 µM | – | – | – | – | – | – | – | – | – |
| CCCCN=C(NC#N)NCCCC | > 100 µM | > 100 µM | > 100 µM | 42 µM | > 100 µM | > 100 µM | > 100 µM | – | > 100 µM | > 100 µM | – | – | – | – | – | – | – | – | – |
| NC(N)=Nc1ncccc1[N+](=O)[O-] | > 100 µM | > 100 µM | > 100 µM | > 100 µM | 66.5 µM | > 100 µM | > 100 µM | – | > 100 µM | > 88 µM | – | – | – | – | – | – | – | – | – |
| CCOC(=O)C1=C(OC(OCC)C(CC)[Se]c2ccccc2)CCCC1 (stereo not given) | > 100 µM | 52.1 µM | > 100 µM | – | 65.7 µM | > 100 µM | > 100 µM | – | 62 µM | 97.7 µM | – | – | – | – | – | – | – | – | – |
| Cc1cn(C(C)OCCN2C(=O)c3ccccc3C2=O)c(=O)[nH]c1=O (stereo not given) | > 100 µM | > 100 µM | > 100 µM | > 100 µM | > 100 µM | > 100 µM | > 100 µM | > 100 µM | > 100 µM | – | – | – | – | – | – | – | – | – | – |
| COCC1OC(N2C(=O)NC(=O)[C@@H]3C=C4CCCCC4=C[C@@H]32)C(OC)C1OC (stereo not given in full) | – | > 100 µM | – | > 100 µM | > 100 µM | > 100 µM | > 100 µM | > 100 µM | > 100 µM | > 100 µM | – | – | – | – | – | – | – | – | – |
| O=C(O)C(CO)NC(=O)n1c2ccccc2c2ccccc21 (stereo not given) | > 100 µM | > 100 µM | > 100 µM | > 100 µM | > 100 µM | > 100 µM | > 100 µM | – | > 100 µM | > 100 µM | – | – | – | – | – | – | – | – | – |
| COC(=O)CC(NC(=O)OCc1ccccc1)C(=O)NC(CC(=O)OC)C(=O)NC(CC(=O)OC)C(=O)NC(CC(=O)OC)C(=O)NC(CC(=O)OC)C(=O)NC(CC(=O)OC)C(=O)NN (stereo not given) (Cbz-D(OMe)D(OMe)D(OMe)D(OMe)D(OMe)D(OMe)-NHNH2; configuration not given here) | > 100 µM | > 100 µM | – | > 100 µM | – | > 100 µM | > 100 µM | – | > 100 µM | – | – | – | – | – | – | – | – | – | – |
| COC(=O)c1c/c(=N\NC(=O)CC(=O)Nc2ccccc2OC)c2ccccc2o1 | > 100 µM | > 100 µM | > 100 µM | > 100 µM | > 100 µM | > 100 µM | > 100 µM | – | > 100 µM | – | – | – | – | – | – | – | – | – | – |
| COC(=O)/C(=N/NC(=O)C[N+](C)(C)C)C(C(=O)OC)C(=O)C(=O)Nc1ccc(F)cc1 (stereo not given) | > 100 µM | > 100 µM | > 100 µM | > 100 µM | > 100 µM | > 100 µM | > 100 µM | – | > 100 µM | > 100 µM | – | – | – | – | – | – | – | – | – |
| CC1(C)OCC2OC3([C@H]4OC(C)(C)O[C@@H]4CO)OC(C)(C)OC3C2O1 (stereo not given in full) | > 100 µM | > 100 µM | > 100 µM | > 100 µM | > 100 µM | > 100 µM | > 100 µM | > 100 µM | > 100 µM | – | – | – | – | – | – | – | – | – | – |

Source: PubChem BioAssay (NCI)
